Test results as given in BindingDB's records for doi:10.1016/0024-3205(96)00449-3 (Eli Lilly, 1996).

Columns and labels:
[1] = target: 5-hydroxytryptamine receptor 2A (Homo sapiens, UniProt P28223)
[2] = target: 5-hydroxytryptamine receptor 2B (Homo sapiens, UniProt P41595)
[3] = target: T1, 5-hydroxytryptamine receptor 2C (Homo sapiens, UniProt P28335)
T1 sequence (P28335 whole entry): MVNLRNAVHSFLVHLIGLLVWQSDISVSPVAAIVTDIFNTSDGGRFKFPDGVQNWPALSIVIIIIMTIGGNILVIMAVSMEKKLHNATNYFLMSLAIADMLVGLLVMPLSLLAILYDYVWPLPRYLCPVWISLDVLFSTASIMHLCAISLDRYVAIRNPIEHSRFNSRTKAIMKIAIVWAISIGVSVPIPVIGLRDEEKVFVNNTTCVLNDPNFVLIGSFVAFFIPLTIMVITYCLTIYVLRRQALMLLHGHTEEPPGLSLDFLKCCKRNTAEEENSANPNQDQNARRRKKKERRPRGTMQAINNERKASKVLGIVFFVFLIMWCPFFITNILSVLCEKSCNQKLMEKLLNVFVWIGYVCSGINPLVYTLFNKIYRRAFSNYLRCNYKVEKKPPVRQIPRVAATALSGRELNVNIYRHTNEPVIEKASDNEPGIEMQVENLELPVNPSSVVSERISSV

5-hydroxytryptamine receptor 2A, sequence (P28223 whole entry): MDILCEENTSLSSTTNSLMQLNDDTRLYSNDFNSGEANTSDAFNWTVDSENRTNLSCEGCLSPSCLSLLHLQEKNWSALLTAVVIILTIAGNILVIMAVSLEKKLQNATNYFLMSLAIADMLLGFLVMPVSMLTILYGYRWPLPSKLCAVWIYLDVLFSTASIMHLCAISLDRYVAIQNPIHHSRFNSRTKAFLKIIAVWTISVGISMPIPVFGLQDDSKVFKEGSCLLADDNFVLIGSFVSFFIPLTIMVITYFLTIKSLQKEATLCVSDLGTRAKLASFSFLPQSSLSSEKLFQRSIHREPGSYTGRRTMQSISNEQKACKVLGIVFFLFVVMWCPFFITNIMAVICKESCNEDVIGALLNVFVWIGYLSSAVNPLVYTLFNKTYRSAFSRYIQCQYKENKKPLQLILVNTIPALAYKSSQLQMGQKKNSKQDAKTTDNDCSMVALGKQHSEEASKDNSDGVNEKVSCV
5-hydroxytryptamine receptor 2B, sequence (P41595 whole entry): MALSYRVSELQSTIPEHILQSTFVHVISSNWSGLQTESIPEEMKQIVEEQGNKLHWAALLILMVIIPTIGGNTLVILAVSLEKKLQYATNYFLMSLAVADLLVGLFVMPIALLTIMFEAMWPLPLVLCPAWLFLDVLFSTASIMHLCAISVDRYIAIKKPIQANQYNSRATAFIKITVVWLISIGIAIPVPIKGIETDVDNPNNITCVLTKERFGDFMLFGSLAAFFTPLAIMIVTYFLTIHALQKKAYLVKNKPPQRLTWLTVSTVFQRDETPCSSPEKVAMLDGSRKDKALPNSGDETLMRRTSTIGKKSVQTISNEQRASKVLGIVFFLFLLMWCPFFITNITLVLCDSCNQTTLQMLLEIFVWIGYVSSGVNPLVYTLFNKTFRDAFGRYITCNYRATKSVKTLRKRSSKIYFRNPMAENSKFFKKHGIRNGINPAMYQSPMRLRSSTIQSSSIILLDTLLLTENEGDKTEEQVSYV

NC(N)=NN=C(c1ccccc1)C1CCC(Cl)S1 (stereo not drawn) [LY 063518]
Ki [1]: 137 nM
Ki [2]: 472 nM
Ki [3]: 1660 nM

CCCc1c(COc2ccc(C=NN=C(N)N)cc2)ccc(C(C)=O)c1O [LY 314228]
Ki [1]: 65 nM
Ki [2]: 1210 nM
Ki [3]: 168 nM

CCCc1c(COc2ccc(C=NN=C(N)N)c(OC)c2)ccc(C(=O)CC)c1O [LY 320950]
Ki [1]: 248 nM
Ki [2]: 465 nM
Ki [3]: 188 nM

CCCc1cc(C(C)(C)C)ccc1Oc1cccc(C=NN=C(N)N)c1 [LY 320951]
Ki [1]: 839 nM
Ki [2]: 2930 nM
Ki [3]: 1190 nM

CCCc1c(COc2ccc(C=NN=C(N)N)cc2)ccc(C(=O)CC)c1O [LY 320954]
Ki [1]: 96 nM
Ki [2]: 1640 nM
Ki [3]: 257 nM

Cc1ccc(C)c(COc2ccc(C=NN=C(N)N)cc2)c1 [LY 334359]
Ki [1]: 569 nM
Ki [2]: 388 nM
Ki [3]: 401 nM

NC(N)=NN=Cc1cccc(OCc2ccc(C(=O)c3ccccc3)cc2)c1 [LY 334362]
Ki [1]: 179 nM
Ki [2]: 477 nM
Ki [3]: 91 nM

CCc1c(COc2ccc(C=O)cc2)ccc(C(C)=O)c1O [LY 335102]
Ki [2]: 7910 nM
Ki [3]: 9730 nM
